In US9205064B2, “Methods for the diagnosis of oncological disorders using epimetabolic shifters, multidimensional intracellular molecules, or environmental influencers” (Berg LLC, priority 2009, dated 2015):

System: Lactate Dehydrogenase (LDH)
Experiment: Western blot of lactate dehydrogenase levels
Assay type: cell-based, human
Conditions: cancer cells
Experimental: The samples were processed and run on a 4-12% Bis-Tris Novex NuPAGE gel as described above. The gels were run, transferred and stained essentially as described above.
After transfer each blot was dried for 15-20 minutes, activated with methanol for 5 seconds, washed with water for 5 minutes, and TBST for 15 minutes. The blots were blocked for 1 hour with 5% blocking reagent in TBS-T at room temperature and then washed 3 times with TBS-T (1×-15′; 2×5′ each) and probed with the primary antibody for Lactate Dehydrogenase (abcam ab2101; polyclonal) in 5% BSA (at 1:1000 dilutions) by incubation overnight at 4 deg C. with shaking. After the overnight incubation with primary antibody for Lactate Dehydrogenase, the blots were washed 3 times with TBS-T (1×-15′; 2×5′ each) and probed with the secondary antibody (rabbit antigoat; 1:10,000 dilution) for 1 h at room temperature. After 1 h of incubation with secondary antibodies, the blots were washed 3 times with TBS-T (1×-15′; 2×5′ each) and then incubated with ECF reagent for 5 mins and then each blot scanned with 5100 Fuji Laser scanner at 25 uM resolution, 16 bit, green laser, at 400V and at 500 V. […]
The levels of LDH and PDH were determined by probing the blots successively with primary antibodies for LDH and PDH, essentially as described above. […]

SMILES: COC1=C(OC)C(=O)C(C/C=C(\C)CC/C=C(\C)CC/C=C(\C)CC/C=C(\C)CC/C=C(\C)CC/C=C(\C)CC/C=C(\C)CC/C=C(\C)CC/C=C(\C)CCC=C(C)C)=C(C)C1=O [Q10, Coenzyme Q10]
- Lactate Dehydrogenase (LDH) expression: reduced
